# Assays:
# SW-620/5-FU-R cells = test: Cellular fractionation and western blotting of p53 and Vimentin; format: cell-based; conditions: 300 nM, 48 h, vs vehicle
# Procedure: Fig. 3 Chk2-dependent role of 4DPG in modulating p53 and repressing Vimentin expression in 5-FU-R cells. A Immunocytochemistry results showing the Vimentin expression level in SW-620/5-FU-R cells treated/transfected with scramble, SiChk2, scramble plus 4DPG, SiChk2 plus 4DPG, vehicle, PV1019, 4DPG, and PV1019 plus 4DPG for 48 h. Scale bars: 50 µm. […] C Matrigel invasion assay results showing invaded HCT-116/5-FU-R and SW-620/5-FU-R cells following 48 h of transient transfection with GFP and GFP-Chk2 plasmid construct. Scale bars: 50 µm. D Quantification of the number of invaded cells per field from the above experimental conditions. n = 3, error bars, mean ± SD; *P < 0.05, ***P < 0.001. E Immunocytochemistry results displaying Vimentin expression levels in HCT-116/5-FU-R and SW-620/5-FU-R cells after 48 h of transient transfection with pCDNA3 and/or HA-Chk2 plasmid construct. Scale bars: 50 µm. F Immunoprecipitation with Vimentin or p53 followed by western blotting analysis of p53 in SW-620/5-FU-R cells treated with vehicle and/or 4DPG (300 nM) for 48 h. G Cytosolic (left panel) and nuclear (right panel) extracts of SW-620/5-FU-R cells treated with vehicle and/or 4DPG (300 nM) for 48 h showing protein expression of Vimentin and p53. Tubulin and lamin expression was considered as endogenous loading controls for cytosolic and nuclear fractions, respectively.
# Moreover, to gain mechanistic insights into how 4DPG-induced activation of Chk2 suppresses EMT and invasiveness, we examined the downstream substrates of Chk2. Tumor suppressor p53 acts as a direct substrate of Chk2 that regulates cell cycle, DNA repair, or apoptosis of cancer cells in response to DNA damage[27],[39]. We attempted to investigate whether there any molecular interaction takes place between Vimentin and p53 in these 5-FU-R cells. Our immunoprecipitation analysis unveiled that 4DPG potentially interrupted the association of Vimentin and p53 in SW-620/5-FU-R cells. […] Since 4DPG disrupted the Vimentin–p53 association, we were curious to see the consequences on p53 expression in various cellular compartments. We separated cytosolic and nuclear fractions of SW-620/5-FU-R cells treated with vehicle and/or 4DPG and conducted western blotting analysis considering relevant loading controls.
# SW-620/5-FU-R cells seeded in 90-mm Petri dishes were treated with vehicle and/or 4DPG for 48 h, following overnight incubation. Cells were then harvested, washed with PBS; cytosolic and nuclear extracts were prepared following our established protocol[37],[56].
# RBCs = test: In vitro hemolysis assay; format: cell-based; conditions: 20 µg/mL (highest tested concentration), 1 h incubation
# Procedure: Solubility and distribution coefficient are among the major physicochemical properties of a drug that greatly determine its absorption in physiological compartments. […] The distribution coefficient (logD, pH 7.4) of 4DPG was determined to be 0.815 ± 0.19, which indicates the slightly lipophilic nature of the molecule. For administration to animals, the appropriate quantity of 4DPG was formulated in the pre-calculated volume of saline with the help of a solubilizer (Tween-80). Next, to assess the hemocompatibility of 4DPG and establish if the compound could be considered safe for intravenous (i.v.) administration, we performed in vitro hemolysis assay by incubating the RBCs with increasing concentrations of the molecule.
# The distribution coefficient, solubility, and hemocompatibility of 4DPG was determined adopting our previously described protocol[37],[40]. For hemolysis assay, increasing concentrations (5, 10, and 20 µg/mL) of 4DPG were employed. Distilled water (DW) and PBS were considered as […].
# Supplementary Figure S4. Hemocompatibility and exposure of 4DPG. (A) Representative images of RBC suspension incubated with distilled water (negative control), PBS (positive control), and increasing concentrations of 4DPG for 1 h. (B) Quantification of hemolysis in above treatment conditions by measuring the optical density at 540 nm. […]
structure (smiles),measurement,setting,value
"COc1cc([C@@H]2c3cc4c(cc3C[C@H]3COC(=O)[C@@H]32)OCO4)cc(OC)c1O[C@@H]1O[C@H](CO)[C@@H](O)[C@H](O)[C@H]1O [4DPG, 4′-demethyl-deoxypodophyllotoxin glucoside]","augmentation in p53 expression, cytosolic fraction",SW-620/5-FU-R cells,1.65 fold
same,"decrease in Vimentin level, nuclear fraction",SW-620/5-FU-R cells,20 fold
same,"downregulation of Vimentin level, cytosolic fraction",SW-620/5-FU-R cells,2.2 fold
same,"increase in p53, nuclear fraction",SW-620/5-FU-R cells,2.2 fold
same,hemolysis,RBCs,5.8%

# — article PMC7838189, “Natural podophyllotoxin analog 4DPG attenuates EMT and colorectal cancer progression via activation of checkpoint kinase 2” (Cell Death Discovery, 2021)
